What is called IC50 is the concentration needed to halve the response being measured. A word on the % inhibition: it is the relative decrease from the control value, in per cent. Low readings indicate little suppression, high ones strong suppression.

Oligonucleotides are written 5' to 3', each unit as a sugar letter and its base; * is a phosphorothioate linkage, no mark a phosphodiester; rarer units and linkages stand in square brackets, end groups in braces. Plain capitals give the bases only. k = constrained ethyl (cEt); [5mC] = 5-methylcytosine; d = 2'-deoxy (DNA)

Data set [1] relates to AR mRNA. The data set can be described thus: Dose-dependent antisense inhibition of human AR in HuVEC cells (electroporation, qRT-PCR RTS3559, IC50). The data set is classed as cell-based. The following applies: HuVEC. The method in brief: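 HuVEC cells dosed with antisense oligonucleotides by electroporation and treated approximately 16 hours. AR mRNA quantified by real-time qPCR with primer probe set RTS3559 and normalised to total RNA by RIBOGREEN; IC50 from dose-response.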

Data set [2] deals with AR mRNA. Briefly: Antisense inhibition of human AR in HuVEC cells, single concentration (electroporation, qRT-PCR RTS3559). The data set is classed as cell-based. The method in brief: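 AR mRNA levels were measured with human primer-probe set RTS3559 and adjusted for total RNA (RIBOGREEN). Cells were HuVEC, with each antisense oligonucleotide delivered by electroporation at one concentration.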
For orientation: Quantitative PCR measures a nucleic acid by following its amplification.

The mark [3] stands for this setting: Table 30, electroporation, approximately 16 hours.
Where [4] appears, read: Table 36, electroporation, approximately 16 hours.
[5] abbreviates: Table 24, 1,000 nM oligonucleotide, electroporation, approximately 24 hours, relative to untreated control.
[6] abbreviates: 500 nM ASO, electroporation, ~24 h, Table 1.
Where [7] appears, read: Table 32, electroporation, approximately 16 hours.
Setting [8] is: Table 33, electroporation, approximately 16 hours.
Where [9] appears, read: Table 20, 500 nM oligonucleotide, electroporation, approximately 24 hours, relative to untreated control.
Setting [10] is: Table 31, electroporation, approximately 16 hours.
Setting [11] is: Table 29, electroporation, approximately 16 hours.

As to “583728 (antisense kG*k[5mC]*kT*d[5mC]*dT*dG*dG*dA*dA*d[5mC]*dA*dG*dA*kT*kT*k[5mC]) [compound 583728]”, in the data set with AR mRNA [1] (setting [3]), the “percent inhibition of AR, 46.9 nM” value was 9%; the “percent inhibition of AR, 187.5 nM” value was 48%; the “percent inhibition of AR, 750.0 nM” value is recorded as 67%; the “percent inhibition of AR, 3000.0 nM” value amounted to 70%. The IC50 with AR mRNA [1] (setting [3]) was determined as 0.4 µM. In the data set on AR mRNA [2] (500 nM ASO, ~24 h, Table 18), the “% inhibition” value amounted to 45%.
Regarding “549432 (kG*kA*kG*dG*dA*dT*d[5mC]*dA*dT*d[5mC]*dA*d[5mC]*dA*kG*kA*kT) [compound 549432]”, the “percent inhibition of AR” value with AR mRNA [1] (55.6 nM, ~16 h, Table 4) is listed as 15%; in the data set with AR mRNA [1] (166.7 nM, ~16 h, Table 4), 46%; in the data set on AR mRNA [1] (500.0 nM, ~16 h, Table 4), 80%; in the data set with AR mRNA [1] (1500.0 nM, ~16 h, Table 4), 92%. The substance further had an IC50 with AR mRNA [1] (~16 h, Table 4) of 0.179 µM. The “% inhibition” value in the data set with AR mRNA [2] (500 nM ASO, electroporation, ~24 h, Table 2) is recorded as 90%.
In the case of “584165 (kT*k[5mC]*kA*dA*dT*d[5mC]*dT*dA*dG*dA*dT*dA*d[5mC]*k[5mC]*kA*kT; antisense) [compound 584165]”, in the data set with AR mRNA [1] (setting [4]), the “percent inhibition of AR, 46.9 nM” value worked out at 12%; the “percent inhibition of AR, 187.5 nM” value came out at 34%; the “percent inhibition of AR, 750.0 nM” value was determined as 66%; the “percent inhibition of AR, 3000.0 nM” value was 89%. Besides, 0.3 µM corresponded to half-maximal inhibition with AR mRNA [1] (setting [4]) (IC50). Also, the “% inhibition” value in the data set on AR mRNA [2] (setting [5]) came out at 70%.
Consider “549379 (kG*k[5mC]*kT*d[5mC]*d[5mC]*d[5mC]*dG*d[5mC]*d[5mC]*dT*d[5mC]*dG*d[5mC]*k[5mC]*kG*k[5mC]; antisense) [compound 549379]”, for which the “percent inhibition of AR” value with AR mRNA [1] (55.6 nM, ~16 h, Table 3) is listed as 11%; with AR mRNA [1] (166.7 nM, ~16 h, Table 3), 51%; in the data set on AR mRNA [1] (500.0 nM, ~16 h, Table 3), 68%; in the data set with AR mRNA [1] (1500.0 nM, ~16 h, Table 3) it was 88%. For the same substance, half-maximal inhibition in the data set with AR mRNA [1] (~16 h, Table 3) (IC50) was put at 0.237 µM. Besides, the “% inhibition” value with AR mRNA [2] (setting [6]) turned out to be 86%.
As for “583749 (antisense kA*kG*kG*dT*dG*d[5mC]*dT*dG*d[5mC]*dG*d[5mC]*dT*d[5mC]*kG*k[5mC]*kG) [compound 583749]”, in the data set with AR mRNA [1] (setting [7]), the “percent inhibition of AR, 46.9 nM” value was determined as 34%; the “percent inhibition of AR, 187.5 nM” value came to 40%; the “percent inhibition of AR, 750.0 nM” value worked out at 75%; the “percent inhibition of AR, 3000.0 nM” value amounted to 87%. This substance showed an IC50 with AR mRNA [1] (setting [7]) of 0.17 µM. Also, the “% inhibition” value in the data set with AR mRNA [2] (Table 19, 500 nM oligonucleotide, electroporation, approximately 24 hours, relative to untreated control) amounted to 36%.
“583868 (kA*k[5mC]*kT*d[5mC]*dA*dG*d[5mC]*dA*dG*dT*dA*dT*d[5mC]*kT*kT*k[5mC]; antisense) [compound 583868]”: in the data set with AR mRNA [1] (setting [8]), the “percent inhibition of AR, 46.9 nM” value was found to be 19%; the “percent inhibition of AR, 187.5 nM” value is 31%; the “percent inhibition of AR, 750.0 nM” value was 59%; the “percent inhibition of AR, 3000.0 nM” value is on record as 81%. The substance further displayed an IC50 with AR mRNA [1] (setting [8]) of 0.41 µM. Moreover, the “% inhibition” value in the data set with AR mRNA [2] (setting [9]) was found to be 34%.
Turning to “583856 (kA*kA*k[5mC]*d[5mC]*dT*dT*dT*dG*d[5mC]*dA*dT*dT*d[5mC]*kG*kG*k[5mC]; antisense) [compound 583856]”, in the data set on AR mRNA [1] (setting [7]), the “percent inhibition of AR, 46.9 nM” value is 31%; the “percent inhibition of AR, 187.5 nM” value is recorded as 55%; the “percent inhibition of AR, 750.0 nM” value was determined as 74%; the “percent inhibition of AR, 3000.0 nM” value amounted to 89%. This substance registered an IC50 in the data set on AR mRNA [1] (setting [7]) of 0.14 µM. In addition, the “% inhibition” value with AR mRNA [2] (setting [9]) was 45%.
For “583843 (kG*kT*kA*d[5mC]*dA*dT*dG*d[5mC]*dA*dA*dT*d[5mC]*d[5mC]*k[5mC]*k[5mC]*k[5mC]; antisense) [compound 583843]”, in the data set with AR mRNA [1] (setting [8]), the “percent inhibition of AR, 46.9 nM” value was 22%; the “percent inhibition of AR, 187.5 nM” value is on record as 40%; the “percent inhibition of AR, 750.0 nM” value stood at 67%; the “percent inhibition of AR, 3000.0 nM” value was found to be 85%. This substance also came in with an IC50 in the data set on AR mRNA [1] (setting [8]) of 0.3 µM. Also, the “% inhibition” value with AR mRNA [2] (setting [9]) is listed as 35%.
Turning to “583700 (antisense kG*kA*kA*dG*dA*dG*dT*dT*d[5mC]*dA*dA*d[5mC]*dA*kG*kG*k[5mC]) [compound 583700]”, in the data set on AR mRNA [1] (setting [10]), the “percent inhibition of AR, 46.9 nM” value was 14%; the “percent inhibition of AR, 187.5 nM” value is 34%; the “percent inhibition of AR, 750.0 nM” value was 57%; the “percent inhibition of AR, 3000.0 nM” value was 71%. In the data set with AR mRNA [1] (setting [10]), this substance registered an IC50 of 0.55 µM. Moreover, in the data set with AR mRNA [2] (500 nM ASO, ~24 h, Table 18), the “% inhibition” value is on record as 36%.
For the substance “583866 (kT*k[5mC]*kT*dT*d[5mC]*dA*dG*dT*dG*d[5mC]*dT*d[5mC]*dT*kT*kG*k[5mC]; antisense) [compound 583866]”, in the data set on AR mRNA [1] (setting [8]), the “percent inhibition of AR, 46.9 nM” value was 17%; the “percent inhibition of AR, 187.5 nM” value is recorded as 48%; the “percent inhibition of AR, 750.0 nM” value worked out at 71%; the “percent inhibition of AR, 3000.0 nM” value came to 91%. Also, the IC50 in the data set with AR mRNA [1] (setting [8]) worked out at 0.24 µM. In the data set with AR mRNA [2] (setting [9]), the “% inhibition” value turned out to be 32%.
In the case of “583836 (k[5mC]*k[5mC]*kG*dA*dA*dG*d[5mC]*dT*dG*dT*dT*d[5mC]*d[5mC]*k[5mC]*k[5mC]*kT; antisense) [compound 583836]”, in the data set with AR mRNA [1] (setting [7]), the “percent inhibition of AR, 46.9 nM” value came out at 11%; the “percent inhibition of AR, 187.5 nM” value was 27%; the “percent inhibition of AR, 750.0 nM” value was 67%; the “percent inhibition of AR, 3000.0 nM” value came to 86%. In the data set on AR mRNA [1] (setting [7]), this substance registered an IC50 of 0.39 µM. Moreover, the “% inhibition” value with AR mRNA [2] (setting [9]) stood at 37%.
For the substance “549371 (kG*kT*kT*dG*dT*dA*dG*dT*dA*dG*dT*d[5mC]*dG*k[5mC]*kG*kA; antisense) [compound 549371]”, the “percent inhibition of AR” value was determined as 30% with AR mRNA [1] (55.6 nM, ~16 h, Table 3); 52% in the data set with AR mRNA [1] (166.7 nM, ~16 h, Table 3); 83% in the data set on AR mRNA [1] (500.0 nM, ~16 h, Table 3); 88% in the data set with AR mRNA [1] (1500.0 nM, ~16 h, Table 3). Moreover, the IC50 with AR mRNA [1] (~16 h, Table 3) stood at 0.148 µM. For the same substance, the “% inhibition” value in the data set with AR mRNA [2] (setting [6]) came out at 93%.
As for “583714 (antisense kT*k[5mC]*k[5mC]*dA*dT*d[5mC]*d[5mC]*dT*dT*dG*dA*dG*d[5mC]*kT*kT*kG) [compound 583714]”, in the data set with AR mRNA [1] (setting [10]), the “percent inhibition of AR, 46.9 nM” value is reported as 22%; the “percent inhibition of AR, 187.5 nM” value is 34%; the “percent inhibition of AR, 750.0 nM” value is listed as 59%; the “percent inhibition of AR, 3000.0 nM” value is recorded as 79%. In addition, the IC50 with AR mRNA [1] (setting [10]) is 0.4 µM. Further, the “% inhibition” value with AR mRNA [2] (500 nM ASO, ~24 h, Table 18) is listed as 36%.
Consider “583649 (antisense kA*kG*kG*d[5mC]*dT*d[5mC]*dA*d[5mC]*dA*dG*dT*d[5mC]*dT*kG*kT*k[5mC]) [compound 583649]”, for which, in the data set with AR mRNA [1] (setting [11]), the “percent inhibition of AR, 46.9 nM” value was found to be 28%; the “percent inhibition of AR, 187.5 nM” value was 50%; the “percent inhibition of AR, 750.0 nM” value came to 68%; the “percent inhibition of AR, 3000.0 nM” value was found to be 84%. The same substance gave an IC50 in the data set on AR mRNA [1] (setting [11]) of 0.2 µM. Further, in the data set with AR mRNA [2] (500 nM ASO, ~24 h, Table 17), the “% inhibition” value turned out to be 46%.
In the case of “584158 (kG*kG*kT*dT*dA*dA*d[5mC]*dT*dT*dT*d[5mC]*dT*d[5mC]*kT*kG*kA; antisense) [compound 584158]”, in the data set on AR mRNA [1] (setting [4]), the “percent inhibition of AR, 46.9 nM” value turned out to be 14%; the “percent inhibition of AR, 187.5 nM” value is 37%; the “percent inhibition of AR, 750.0 nM” value was 70%; the “percent inhibition of AR, 3000.0 nM” value was determined as 89%. In the data set on AR mRNA [1] (setting [4]), this substance had an IC50 of 0.26 µM. Moreover, the “% inhibition” value with AR mRNA [2] (setting [5]) is listed as 69%.
For the substance “584168 (k[5mC]*kT*kG*dA*dT*dT*dA*dG*d[5mC]*dT*dA*dT*dG*kA*k[5mC]*k[5mC]; antisense) [compound 584168]”, in the data set on AR mRNA [1] (setting [4]), the “percent inhibition of AR, 46.9 nM” value came out at 5%; the “percent inhibition of AR, 187.5 nM” value was determined as 32%; the “percent inhibition of AR, 750.0 nM” value turned out to be 70%; the “percent inhibition of AR, 3000.0 nM” value is given as 91%. The substance also gave an IC50 in the data set with AR mRNA [1] (setting [4]) of 0.32 µM. The “% inhibition” value in the data set on AR mRNA [2] (setting [5]) turned out to be 70%.

The values above are taken from USRE48461E1, “Modulation of androgen receptor expression” (Ionis Pharmaceuticals, Inc., priority 2012, dated 2021).
